The values below are quoted from earlier work in patent US20090117176A1, “Anticancer Treatments” (Pharma Mar, S.A. Sociedad Unipersonal, priority 2004, published 2009).

The structures appear in SMILES notation.

The conditions of the data set: high-dose dexamethasone pretreatment, female rat; cited from earlier work.

As for `C[C@@H]1C[C@H]2[C@@H]3CCC4=CC(=O)C=C[C@]4(C)[C@@]3(F)[C@@H](O)C[C@]2(C)[C@@]1(O)C(=O)CO` [dexamethasone], the “effect of pretreatment on ET-743 hepatotoxicity” value is given as “abrogate ET-743-mediated hepatotoxicity”.
